Experimental data reported in patent publication US20210228497A1, “New Medical Devices, Delivery Vehicles and Manufacturing Thereof” (Remy Biosciences, Inc., priority 2018, published 2021).

Assay: Saturation concentration of CBD in adhesive matrix (turbidity / flux plateau)
Type: physicochemical

C=C(C)[C@@H]1CCC(C)=C[C@H]1c1c(O)cc(CCCCC)cc1O [CBD, cannabidiol]
Saturation concentration of CBD in acrylate adhesive Durotak 87-2287 (Durotak 87-2287 adhesive matrix): 30%
Saturation concentration of CBD in PIB adhesive (un-tackified PIB adhesive matrix): 12%
